From patent publication US20240254143A1, “OREXIN RECEPTOR AGONISTS AND USES THEREOF” (JAZZ PHARMACEUTICALS IRELAND LIMITED, priority 2021, published 2024) come the findings set out here.

pEC50: −log10 of the molar value.

This assay has as its target T1, human recombinant OX2 (hOX2) receptor (Homo sapiens, UniProt O43614).
T1 construct: host or cells: CHO cells
T1 sequence (O43614 1-444): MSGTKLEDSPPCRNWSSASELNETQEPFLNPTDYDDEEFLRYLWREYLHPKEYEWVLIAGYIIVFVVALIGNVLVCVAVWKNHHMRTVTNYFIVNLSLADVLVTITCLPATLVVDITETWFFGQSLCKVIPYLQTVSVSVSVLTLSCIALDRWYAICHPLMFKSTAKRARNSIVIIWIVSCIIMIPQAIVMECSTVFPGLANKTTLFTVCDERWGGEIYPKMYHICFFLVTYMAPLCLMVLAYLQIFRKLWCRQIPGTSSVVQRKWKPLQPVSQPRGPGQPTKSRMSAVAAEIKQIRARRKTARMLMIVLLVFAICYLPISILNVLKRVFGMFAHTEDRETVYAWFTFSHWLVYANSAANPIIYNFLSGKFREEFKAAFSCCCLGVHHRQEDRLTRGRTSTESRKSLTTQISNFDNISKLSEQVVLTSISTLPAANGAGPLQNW
Kind of assay: IP-1 accumulation assay (IP-One HTRF) in hOX2-CHO cells. Format: cell-based. As to conditions: 60 min at 37° C., mean of at least two independent experiments, read-out: EC50_OX2R Category. Here is the method: Example 94: IP-1 Accumulation Assay
The accumulation of Inositol-1 Monophosphate (IP-1) was measured using IP-One HTRF® Terbium cryptate based assay (Cisbio) in human recombinant OX1 (hOX1) and at OX2 (hOX2) receptors expressed in CHO cells (DiscoverX) according to the manufacturer's instructions for cells tested in suspension.
hOX1-CHO and hOX2-CHO cells were seeded into white 384-well plates at a density of 20,000 cells/well in Hank's Balanced Salt Solution (HBSS) containing 20 mM HEPES pH 7.4, 50 mM, LiCl and 0.1% and Bovine Serum Albumin (BSA).
Compounds of the present disclosure were tested in a 11 points concentration response curve (CRC) serially diluted in neat DMSO at 200 fold concentrations and added by Echo acoustic liquid handling (Labcyte) to the cells (0.5% DMSO final in the assay). After 60 min of incubation at 37° C. detection reagents, IP1-d2 tracer and anti-IP1-cryptate were diluted in lysis buffer according to the manufacturer's descriptions and added to the cells.
Following 60 mi incubation at room temperature, time-resolved fluorescence (HTRF) was measured at 615 nm and 665 nm by Envision Multilabel reader (Perkin Elmer) and the HTRF ratio (A665/A615×10^4) was calculated.
The IP-1 accumulation response was expressed as percentage of the maximal OX-A response.
Curve fitting and EC50 estimations were carried out using a four-parameter logistic model using XLfit Software. Mean data of EC50 are calculated from at least two independent experiments performed in duplicates.
(In general: Time-resolved FRET reads energy transfer from a long-lived donor to a nearby acceptor.)
Take `O=C1N[C@@]2(CCN(C(=O)OCC(F)F)[C@@H]2Cc2cccc(-c3cc(F)cc(F)c3)c2F)COC1F` (single isomer, unassigned) [Example 75]: the pEC50 was below 5.00.

Regarding `C[C@@H]1C[C@@]2(COCC(=O)N2)[C@H](Cc2cccc(-c3cc(F)cc(F)c3)c2F)N1C(=O)C1CC1F` (single isomer, unassigned) [Example 90], the pEC50 is 6.00 to 7.00.

Consider `C[C@@H]1C[C@@]2(COCC(=O)N2)[C@H](Cc2cccc(-c3cc(F)cc(F)c3)c2F)N1C(=O)C1CC1F` (single isomer, unassigned) [Example 91], for which the pEC50 is 6.00 to 7.00. Regarding `C[C@@H]1C[C@@]2(COCC(=O)N2)[C@H](Cc2cccc(-c3cc(F)cc(F)c3)c2F)N1C(=O)C1CC1F` (single isomer, unassigned) [Example 92], the pEC50 is 6.00 to 7.00. Regarding `CCNC(=O)N1CCCC2(CCOC(=O)N2)C1CO[C@H]1CC[C@@H](c2ccccc2)CC1` (stereo partly drawn) [Example 11, (CIS)-N-ethyl-2-oxo-7-({[(CIS)-4-phenylcyclohexyl]oxy}methyl)-3-oxa-1,8-diazaspiro[5.5]undecane-8-carboxamide], the pEC50 was above 7.00. As for `CCNC(=O)N1CCCC2(CCOC(=O)N2)C1CO[C@H]1CC[C@@H](c2ccccc2)CC1` (stereo partly drawn) [Example 12, (Trans)-N-ethyl-2-oxo-7-({[(CIS)-4-phenylcyclohexyl]oxy}methyl)-3-oxa-1,8-diazaspiro[5.5]undecane-8-carboxamide], the figure is 5.00 to 6.00; as for `COC(=O)N1CCCC2(CCOC(=O)N2)C1Cc1cccc(-c2ccccc2)c1` (stereo not shown) [Example 19, Methyl 7-({[1,1′-biphenyl]-3-yl}methyl)-2-oxo-3-oxa-1,8-diazaspiro[5.5]undecane-8-carboxylate], below 5.00. For `CCNC(=O)N1CCC[C@]2(CCOC(=O)N2)[C@H]1Cc1cccc(-c2ccccc2)c1` [Example 26, (6S,7R)-7-({[1,1′-biphenyl]-3-yl}methyl)-N-ethyl-2-oxo-3-oxa-1,8-diazaspiro[5.5]undecane-8-carboxamide] the value was below 5.00. Regarding `CCNC(=O)N1CCC[C@@]2(CCOC(=O)N2)[C@@H]1Cc1cccc(-c2ccccc2)c1` [Example 27, (6R,7S)-7-({[1,1′-biphenyl]-3-yl}methyl)-N-ethyl-2-oxo-3-oxa-1,8-diazaspiro[5.5]undecane-8-carboxamide], the pEC50 is 6.00 to 7.00. `COC(=O)N1CCC[C@@]2(COC(=O)N2)[C@@H]1Cc1cccc(-c2ccccc2)c1` [Example 29, Methyl (5S,6S)-6-({[1,1′-biphenyl]-3-yl}methyl)-2-oxo-3-oxa-1,7-diazaspiro[4.5]decane-7-carboxylate]: the pEC50 is below 5.00. As for `CCNC(=O)N1[C@H](C)C[C@@]2(COCC(=O)N2)[C@@H]1CO[C@H]1CC[C@@H](c2ccccc2)CC1` [Example 47, (1R,3R,5S)-N-ethyl-3-methyl-7-oxo-1-({[(CIS)-4-phenylcyclohexyl]oxy}methyl)-9-oxa-2,6-diazaspiro[4.5] decane-2-carboxamide], the figure is above 7.00; as for `CCNC(=O)N1[C@H](C)C[C@]2(COCC(=O)N2)[C@H]1CO[C@H]1CC[C@@H](c2ccccc2)CC1` [Example 48, (1S,3R,5R)-N-ethyl-3-methyl-7-oxo-1-({[(CIS)-4-phenylcyclohexyl]oxy}methyl)-9-oxa-2,6-diazaspiro[4.5] decane-2-carboxamide], below 5.00.

As to `C[C@@H]1C[C@@]2(COCC(=O)N2)[C@H](CO[C@H]2CC[C@@H](c3ccccc3)CC2)N1C(=O)C(C)(C)O` [Example 49, (1R,3R,5S)-2-(2-hydroxy-2-methylpropanoyl)-3-methyl-1-({[(CIS)-4-phenylcyclohexyl]oxy}methyl)-9-oxa-2,6-diazaspiro[4.5]decan-7-one], the pEC50 is 5.00 to 6.00. For `C[C@@H]1C[C@@]2(COCC(=O)N2)[C@H](CO[C@H]2CC[C@@H](c3ccccc3)CC2)N1C(=O)NCC(F)F` [Example 50, (1R,3R,5S)-N-(2,2-difluoroethyl)-3-methyl-7-oxo-1-({[(CIS)-4-phenylcyclohexyl]oxy}methyl)-9-oxa-2,6-diazaspiro[4.5]decane-2-carboxamide] the value was above 7.00; for `COCCNC(=O)N1[C@H](C)C[C@@]2(COCC(=O)N2)[C@@H]1CO[C@H]1CC[C@@H](c2ccccc2)CC1` [Example 51, (1R,3R,5S)-N-(2-methoxyethyl)-3-methyl-7-oxo-1-({[(CIS)-4-phenylcyclohexyl]oxy}methyl)-9-oxa-2,6-diazaspiro[4.5]decane-2-carboxamide], above 7.00. On to `C[C@@H]1C[C@@]2(COCC(=O)N2)[C@H](CO[C@H]2CC[C@@H](c3ccccc3)CC2)N1C(=O)N1CC(F)(F)C1` [Example 52, (1R,3R,5S)-2-(3,3-difluoroazetidine-1-carbonyl)-3-methyl-1-({[(CIS)-4-phenylcyclohexyl]oxy}methyl)-9-oxa-2,6-diazaspiro[4.5]decan-7-one], for which the pEC50 is 5.00 to 6.00. On to `CCNC(=O)N1[C@H](C)C[C@@]2(COCC(=O)N2)[C@@H]1Cc1cccc(-c2cc(F)cc(F)c2)c1F` [Example 53, (1S,3R,5S)-N-ethyl-3-methyl-7-oxo-1-({2,3′,5′-trifluoro-[1,1′-biphenyl]-3-yl}methyl)-9-oxa-2,6-diazaspiro[4.5]decane-2-carboxamide], for which the pEC50 was above 7.00. For `C[C@@H]1C[C@@]2(COCC(=O)N2)[C@H](Cc2cccc(-c3cc(F)cc(F)c3)c2F)N1C(=O)C(C)(C)O` [Example 54, (1S,3R,5S)-2-(2-hydroxy-2-methylpropanoyl)-3-methyl-1-({2,3′,5′-trifluoro-[1,1′-biphenyl]-3-yl}methyl)-9-oxa-2,6-diazaspiro[4.5]decan-7-one] the value was 6.00 to 7.00; for `C[C@@H]1C[C@@]2(COCC(=O)N2)[C@H](CO[C@H]2CC[C@@H](c3ccccc3)CC2)N1C(=O)C1CCC1` [Example 58, (1R,3R,5S)-2-cyclobutanecarbonyl-3-methyl-1-({[(CIS)-4-phenylcyclohexyl]oxy}methyl)-9-oxa-2,6-diazaspiro [4.5]decan-7-one], above 7.00; for `C[C@@H]1C[C@@]2(COCC(=O)N2)[C@H](CO[C@H]2CC[C@@H](c3ccccc3)CC2)N1C(=O)[C@H]1C[C@@H](F)C1` [Example 59, (1R,3R,5S)-3-methyl-2-[(1s,3s)-3-fluorocyclobutanecarbonyl]-1-({[(CIS)-4-phenylcyclohexyl]oxy}methyl)-9-oxa-2,6-diazaspiro[4.5]decan-7-one], above 7.00. As for `C[C@@H]1C[C@@]2(COCC(=O)N2)[C@H](CO[C@H]2CC[C@@H](c3ccccc3)CC2)N1C(=O)C12CC(C1)C2` [Example 60, (1R,3R,5S)-2-{bicyclo[1.1.1]pentane-1-carbonyl}-3-methyl-1-({[(CIS)-4-phenylcyclohexyl]oxy}methyl)-9-oxa-2,6-diazaspiro[4.5]decan-7-one], the figure is 5.00 to 6.00. `C[C@@H]1C[C@@]2(COCC(=O)N2)[C@H](CO[C@H]2CC[C@@H](c3ccccc3)CC2)N1C(=O)OCC(F)F` [Example 61, 2,2-difluoroethyl (1R,3R,5S)-3-methyl-7-oxo-1-({[(CIS)-4-phenylcyclohexyl]oxy}methyl)-9-oxa-2,6-diazaspiro [4.5]decane-2-carboxylate]: the pEC50 is above 7.00.

Consider `C[C@@H]1C[C@@]2(COCC(=O)N2)[C@H](CO[C@H]2CC[C@@H](c3ccccc3)CC2)N1C(=O)NCC(F)(F)F` [Example 62, (1R,3R,5S)-3-methyl-7-oxo-1-({[(CIS)-4-phenylcyclohexyl]oxy}methyl)-N-(2,2,2-trifluoroethyl)-9-oxa-2,6-diazaspiro[4.5]decane-2-carboxamide], for which the pEC50 was above 7.00. Take `COc1cccnc1N1[C@H](C)C[C@@]2(COCC(=O)N2)[C@@H]1CO[C@H]1CC[C@@H](c2ccccc2)CC1` [Example 63, (1R,3R,5S)-2-(3-methoxypyridin-2-yl)-3-methyl-1-({[(CIS)-4-phenylcyclohexyl]oxy}methyl)-9-oxa-2,6-diazaspiro[4.5]decan-7-one]: the pEC50 was 6.00 to 7.00. Take `C[C@@H]1C[C@@]2(COCC(=O)N2)[C@H](CO[C@H]2CC[C@@H](c3ccccc3)CC2)N1c1nnnn1C` [Example 64, (1R,3R,5S)-3-methyl-2-(1-methyl-1H-1,2,3,4-tetrazol-5-yl)-1-({[(CIS)-4-phenylcyclohexyl]oxy}methyl)-9-oxa-2,6-diazaspiro[4.5]decan-7-one]: the pEC50 is above 7.00.
